Read-outs that look alike come from different tables or passages of the source.

For one assay, the target named is T1, OX1 (Homo sapiens, UniProt O43613).
T1 sequence (O43613 1-425): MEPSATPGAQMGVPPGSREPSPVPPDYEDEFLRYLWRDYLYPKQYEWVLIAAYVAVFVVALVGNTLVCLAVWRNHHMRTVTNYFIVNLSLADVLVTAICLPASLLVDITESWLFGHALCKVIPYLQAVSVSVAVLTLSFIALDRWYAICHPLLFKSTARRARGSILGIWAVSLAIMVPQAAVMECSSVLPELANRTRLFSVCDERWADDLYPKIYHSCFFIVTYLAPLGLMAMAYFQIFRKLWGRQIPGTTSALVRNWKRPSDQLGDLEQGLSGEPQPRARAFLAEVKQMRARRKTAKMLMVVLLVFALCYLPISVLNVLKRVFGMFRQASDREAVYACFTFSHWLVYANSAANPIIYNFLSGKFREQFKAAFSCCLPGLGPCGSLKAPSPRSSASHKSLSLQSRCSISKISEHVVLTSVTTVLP
Put plainly: Measurement of orexin receptor-binding ability ([125I]-OX-A, cell membranes, OX1). Also on record: expressed in transfected cells; host or cells: CHO cells (membrane preparation). How it is done:
(§1) 1. Measurement of Orexin Receptor-Binding Ability
(§2) The assay was carried out using a 96-well Wheat Germ Agglutinin Flash Plate (PerkinElmer). The volume in a single assay well was 100 ul, and the composition of the reaction solution was as follows:
(§3) 25 mM HEPES (pH 7.5), 1 mM CaCl2, 4.5 mM MgCl2, 0.5% BSA (bovine serum albumin), 0.1% sodium azide, 0.05% Tween-20, and 0.2% DMSO.
(§4) Cell membranes were prepared from recombinant CHO cells that expressed OX2 or OX1. The cell membranes were used in an amount of 5 μg protein/assay. […] Finally, the radioactivity of each well was measured using a scintillation counter (TopCount, PerkinElmer).

Another assay deals with T2, OX2 (Homo sapiens, UniProt O43614).
T2 sequence (O43614 1-444): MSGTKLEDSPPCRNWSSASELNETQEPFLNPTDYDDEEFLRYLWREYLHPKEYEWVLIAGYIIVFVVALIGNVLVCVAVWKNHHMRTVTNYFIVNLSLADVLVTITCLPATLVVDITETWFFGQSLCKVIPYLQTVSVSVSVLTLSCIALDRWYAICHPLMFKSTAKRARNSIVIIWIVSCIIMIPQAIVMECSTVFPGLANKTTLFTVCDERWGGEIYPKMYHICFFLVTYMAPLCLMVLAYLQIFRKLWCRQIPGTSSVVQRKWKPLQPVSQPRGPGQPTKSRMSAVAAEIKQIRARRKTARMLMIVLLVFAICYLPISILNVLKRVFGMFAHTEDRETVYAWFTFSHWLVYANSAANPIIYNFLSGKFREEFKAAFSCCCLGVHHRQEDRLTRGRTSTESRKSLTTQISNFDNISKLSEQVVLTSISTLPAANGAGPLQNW
Put plainly: Measurement of orexin receptor-binding ability ([125I]-OX-A, cell membranes, OX2). Also on record: expressed in transfected cells; host or cells: CHO cells (membrane preparation). The following applies: membranes of recombinant CHO cells expressing OX2, 0.2 nM [125I]-OX-A. The protocol: as §1, §2, §3, §4

[1] abbreviates: membranes of recombinant CHO cells expressing OX1, 0.2 nM [125I]-OX-A, read-out: OX1 (IC50).

Regarding `Cc1ncc(OC[C@@]2(c3cccc(F)c3)C[C@H]2C(=O)Nc2ccc(CF)cn2)c(C)n1` [Example 282], the IC50 at OX1 came to 21 nM; on OX2 (OX2 (IC50) nM) it was 2.4 nM.

For the molecule `Cc1ncc(OC[C@@]2(c3ccccc3)C[C@H]2C(=O)Nc2ccc(Cl)cc2)c(C)n1` [Example 25], the IC50 is 927 nM on OX1 (setting [1]) and 59 nM at OX2 (read-out: OX2 (IC50)).

As to `COc1cc(NC(=O)[C@@H]2C[C@@]2(COc2cnc(C)nc2C)c2cccc(F)c2)ncc1F` [Example 94, (1R,2S)-2-{[(2,4-dimethylpyrimidin-5-yl)oxy]methyl}-N-(5-fluoro-4-methoxypyridin-2-yl)-2-(3-fluorophenyl)cyclopropanecarboxamide], the half-inhibitory concentration (IC50) on OX1 came out at 2.8 nM; at OX2 (OX2 (IC50) nM) it was 2.3 nM.

Consider `COc1cncc(NC(=O)[C@@H]2C[C@@]2(COc2cnc(C)nc2C)c2ccc(F)cc2)c1` [Example 112], for which the IC50 was found to be 1020 nM on OX1 (setting [1]) and 18 nM on OX2 (read-out: OX2 (IC50)).

Turning to `Cc1ncc(OCC2(c3cccc(C(F)(F)F)c3)CC2C(=O)Nc2ccc(C#N)cn2)c(C)n1` (centres unmarked) [Example 264], the IC50 on OX1 (setting [1]) amounted to 792 nM; on OX2 (read-out: OX2 (IC50)), 23 nM.

For the molecule `COCCc1nc(C)ncc1OC[C@@]1(c2cccc(F)c2)C[C@H]1C(=O)Nc1cc(C)c(F)cn1` [Example 229, (1R,2S)-N-(5-fluoro-4-methylpyridin-2-yl)-2-(3-fluorophenyl)-2-{[(4-methoxyethyl-2-methylpyrimidin-5-yl)oxy]methyl}cyclopropanecarboxamide], the figures for the IC50 at OX1 and at OX2 (OX2 (IC50) nM) were 19 nM and 4 nM, respectively.

Turning to `Cc1ncc(OC[C@@]2(c3ccccc3)C[C@H]2C(=O)Nc2cc(Cl)cc(C#N)c2)c(C)n1` [Example 35], the figures for the concentration for half-maximal inhibition (IC50) at OX1 (setting [1]) and at OX2 (read-out: OX2 (IC50)) were 558 nM and 43 nM, respectively.

As to `Cc1ncc(OC[C@@]2(c3ccccc3)C[C@H]2C(=O)Nc2cnc(Cl)c(C(F)(F)F)c2)c(C)n1` [Example 60], the IC50 is > 2000 nM at OX1 (setting [1]) and 105 nM on OX2 (read-out: OX2 (IC50)).

For the molecule `Cc1ncc(OC[C@@]2(c3ccccc3)C[C@H]2C(=O)Nc2ccc3c(c2)N(C)C(=O)CO3)c(C)n1` [Example 22], the IC50 at OX1 (setting [1]) is 273 nM; on OX2 (read-out: OX2 (IC50)), 17 nM.

In the case of `O=C(Nc1ccc(F)cn1)[C@@H]1C[C@@]1(COc1c[nH]c(=O)nc1C(F)(F)F)c1cc(F)cc(F)c1` [Example 291, (1R,2S)-2-(3,5-difluorophenyl)-N-(5-fluoropyridin-2-yl)-2-{[(2-oxo-4-trifluoromethyl-1,2-dihydropyrimidin-5-yl)oxy]methyl}cyclopropanecarboxamide], the IC50 on OX1 (setting [1]) was > 200 nM; at OX2 (read-out: OX2 (IC50)), 49 nM.

Consider `Cc1ncc(OC[C@@]2(c3ccccc3)C[C@H]2C(=O)Nc2cc(F)cc(C#N)c2)c(C)n1` [Example 34], for which the 50% inhibitory concentration (IC50) stood at 430 nM on OX1 and 18 nM at OX2 (OX2 (IC50) nM).

Take `Cc1cccc(C2(COc3cnc(C)nc3C)CC2C(=O)Nc2cccnc2)c1` (centres unmarked) [Example 177]: the half-maximal inhibitory concentration (IC50) at OX1 (setting [1]) came out at 334 nM; on OX2 (read-out: OX2 (IC50)), 84 nM.

In the case of `COCc1nc(C)ncc1OC[C@@]1(c2ccccc2)C[C@H]1C(=O)Nc1ccc(C#N)cn1` [Example 140, (1R,2S)-N-(5-cyanopyridin-2-yl)-2-{[(4-(methoxymethyl)-2-methylpyrimidin-5-yl)oxy]methyl}-2-phenylcyclopropanecarboxamide], the values for the IC50 on OX1 (setting [1]) and at OX2 (read-out: OX2 (IC50)) were 44 nM and 8.9 nM, respectively.

Take `Cc1ncc(N(C)C[C@@]2(c3ccccc3)C[C@H]2C(=O)Nc2cc(C)c(F)cn2)c(C)n1` [Example 299]: the half-maximal inhibitory concentration (IC50) came out at 304 nM on OX1 (setting [1]) and 46 nM on OX2 (read-out: OX2 (IC50)).

`CCc1nc(C)ncc1OC[C@@]1(c2ccc(F)cc2)C[C@H]1C(=O)Nc1ccccn1` [Example 245, (1R,2S)-2-{[(4-ethyl-2-methylpyrimidin-5-yl)oxy]methyl}-2-(4-fluorophenyl)-N-(pyridin-2-yl)cyclopropanecarboxamide]: the IC50 on OX1 is 64 nM; at OX2 (OX2 (IC50) nM), 10 nM.

Turning to `COc1cncc(NC(=O)[C@@H]2C[C@@]2(COc2cnc(C)nc2C)c2cccc(F)c2)c1` [Example 89], the figures for the concentration for half-maximal inhibition (IC50) on OX1 and at OX2 (OX2 (IC50) nM) were 161 nM and 14 nM, respectively.

For the molecule `Cc1ncc(OC[C@@]2(c3ccccc3)C[C@H]2C(=O)Nc2ccc3ccncc3c2)c(C)n1` [Example 13], the 50% inhibitory concentration (IC50) at OX1 (setting [1]) is 1240 nM; at OX2 (read-out: OX2 (IC50)) it was 71 nM.

Regarding `CCc1nc(C)ncc1OC[C@@]1(c2cccc(F)c2)C[C@H]1C(=O)Nc1ccc(F)cn1` [Example 241, (1R,2S)-2-{[(4-ethyl-2-methylpyrimidin-5-yl)oxy]methyl}-2-(3-fluorophenyl)-N-(5-fluoropyridin-2-yl)cyclopropanecarboxamide], the IC50 on OX1 is 2 nM; at OX2 (OX2 (IC50) nM), 2.2 nM.

`Cc1nc(CO)ncc1OC[C@@]1(c2cccc(F)c2)C[C@H]1C(=O)Nc1ccc(F)cn1` [Example 323, (1R,2S)-2-(3-fluorophenyl)-N-(5-fluoropyridin-2-yl)-2-{[(2-hydroxymethyl-4-methylpyrimidin-5-yl)oxy]methyl}cyclopropanecarboxamide]: the results for the IC50 on OX1 and at OX2 (OX2 (IC50) nM) were 32.6 nM and 2.6 nM, respectively.

As to `Cc1ncc(OC[C@@]2(c3cc(F)cc(F)c3)C[C@H]2C(=O)Nc2ccc(C#N)cn2)c(C)n1` [Example 137, (1R,2S)-N-(5-cyanopyridin-2-yl)-2-(3,5-difluorophenyl)-2-{[(2,4-dimethylpyrimidin-5-yl)oxy]methyl}cyclopropanecarboxamide], the 50% inhibitory concentration (IC50) on OX1 was 97 nM; on OX2 (OX2 (IC50) nM), 4 nM.

For `COCc1nc(C)ncc1OC[C@@]1(c2cccc(F)c2)C[C@H]1C(=O)Nc1ccc(C#N)cn1` [Example 200], the IC50 at OX1 is 67 nM; on OX2 (OX2 (IC50) nM) it was 12 nM.

`COc1cccc(NC(=O)[C@@H]2C[C@@]2(COc2cnc(C)nc2C)c2ccccc2)n1` [Example 11]: the IC50 at OX1 (setting [1]) worked out at 279 nM; on OX2 (read-out: OX2 (IC50)), 53 nM.

Turning to `COc1cccc(C2(COc3cnc(C)nc3C)CC2C(=O)Nc2ccc(Cl)cn2)c1` (centres unmarked) [Example 185], the IC50 on OX1 was determined as 24 nM; at OX2 (OX2 (IC50) nM) it was 7 nM.

Take `COCc1nc(C)ncc1OC[C@@]1(c2cccc(F)c2)C[C@H]1C(=O)Nc1ccc(F)c(F)c1` [Example 194, (1R,2S)-N-(3,4-difluorophenyl)-2-(3-fluorophenyl)-2-{[(4-methoxymethyl-2-methylpyrimidin-5-yl)oxy]methyl}cyclopropanecarboxamide]: the IC50 came to 7 nM at OX1 (setting [1]) and 3 nM at OX2 (read-out: OX2 (IC50)).

`COc1cccc(C2(COc3cnc(C)nc3C)CC2C(=O)Nc2cccnc2)c1` (centres unmarked) [Example 184]: the IC50 at OX1 (setting [1]) came out at 784 nM; on OX2 (read-out: OX2 (IC50)), 21 nM.

Consider `Cc1ncc(OCC2(c3ccc(F)cc3)CC2C(=O)Nc2ccc(Cl)cn2)c(C)n1` (centres unmarked) [Example 102], for which the 50% inhibitory concentration (IC50) on OX1 came to 50 nM; on OX2 (OX2 (IC50) nM), 23 nM.

`Cc1ncc(OC[C@@]2(c3ccccc3)C[C@H]2c2nc3cc(F)ccc3[nH]2)c(C)n1` [Example 303, 2-{(1R,2S)-2-{[(2,4-dimethylpyrimidin-5-yl)oxy]methyl}-2-phenylcyclopropyl}-5-fluoro-1H-benzimidazole]: the 50% inhibitory concentration (IC50) came out at 75 nM at OX1 (setting [1]) and 3 nM at OX2 (read-out: OX2 (IC50)).

On to `Cc1ncc(OC[C@@]2(c3ccc(O)c(F)c3)C[C@H]2C(=O)Nc2ccc(F)cn2)c(C)n1` [Example 321, (1R,2S)-2-{[(2,4-dimethylpyrimidin-5-yl)oxy]methyl}-2-(3-fluoro-4-hydroxyphenyl)-N-(5-fluoropyridin-2-yl)cyclopropanecarboxamide], for which the IC50 stood at 20 nM on OX1 and 7 nM at OX2 (OX2 (IC50) nM).

Regarding `Cc1cccc(C2(COc3cnc(C)nc3C)CC2C(=O)Nc2ccc(F)cn2)c1` (centres unmarked) [Example 176], the values for the concentration for half-maximal inhibition (IC50) at OX1 and on OX2 (OX2 (IC50) nM) were 137 nM and 26 nM, respectively.

As for `Cc1ncc(N(C)C[C@@]2(c3ccccc3)C[C@H]2C(=O)Nc2cc(C)c(Cl)cn2)c(C)n1` [Example 301], the IC50 on OX1 (setting [1]) was determined as 175 nM; at OX2 (read-out: OX2 (IC50)), 28 nM.

For `Cc1ncc(OC[C@@]2(c3ccccc3)C[C@H]2C(=O)Nc2cccc(N(C)C)c2)c(C)n1` [Example 19, (1R,2S)-N-[3-(dimethylamino)phenyl]-2-{[(2,4-dimethylpyrimidin-5-yl)oxy]methyl}-2-phenylcyclopropanecarboxamide], the IC50 at OX1 (setting [1]) worked out at 93 nM; on OX2 (read-out: OX2 (IC50)) it was 10 nM.

Broadly, the IC50 is the concentration that gives 50% inhibition.

(Values after patent US8268848B2, “Cyclopropane compound” (Eisai R&D Management Co., Ltd., priority 2010, dated 2012).)
